In patent US20230114728A1 (Venatorx Pharmaceuticals, Inc., priority 2019, published 2023):
Converted amounts (≈) assume the structure as drawn.

Legend:
Type in all cases: cell-based
[1] = test system: K. pneumoniae SI-117 producing VIM-1; experiment: Broth microdilution MIC in CAMHB; settings: Klebsiella pneumoniae, read-out: Minimum Inhibitory Concentration, K. pneumoniae SI-117
Method in brief: (§1)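 Lowest compound concentration with no visible growth after 16-20 h at 37 °C defines MIC. Plates of 2-fold serial dilutions in cation-adjusted Mueller Hinton broth received 2-8×10^5 CFU/mL of exponentially grown cells, per CLSI methods; panel spans reference, hyper-permeable and efflux-pump-deleted strains.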

[2] = test system: E. coli ATCC 25922; experiment: Broth microdilution MIC in CAMHB; settings: Escherichia coli, ATCC25922; E. coli ATCC 25922; MHB; read-out: Minimum Inhibitory Concentration, E. coli 25922
Method in brief: as §1

[3] = test system: E. coli D22; experiment: Broth microdilution MIC in CAMHB; settings: Escherichia coli; E. coli D22 (hyper-permeable); MHB; read-out: Minimum Inhibitory Concentration, E. coli D22
Method in brief: as §1

[4] = test system: E. coli AG100A; experiment: Broth microdilution MIC in CAMHB; settings: Escherichia coli, read-out: Minimum Inhibitory Concentration, E. coli AG100A
Method in brief: as §1

[5] = test system: P. aeruginosa ATCC 35151; experiment: Broth microdilution MIC in CAMHB; settings: Pseudomonas aeruginosa, ATCC35151; MHB; hyper-permeable strain; read-out: Minimum Inhibitory Concentration, P. aeruginosa ATCC 35151
Method in brief: as §1

[6] = test system: N. gonorrhoeae WHO G; experiment: Liquid broth MIC in Fastidious broth; settings: Neisseria gonorrhoeae; N. gonorrhoeae strain WHO G; Fastidious broth; read-out: Minimum Inhibitory Concentration, N. gonorrhoeae WHO G
Method in brief: (§2)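 Colonies were swabbed from chocolate agar after 24 h growth and standardised by optical density at 600 nm. Compounds were serially diluted twofold in Fastidious broth, and bacteria added to give 5×10^5 CFU/mL. After about 24 h at 36 °C in 5% CO2, the lowest concentration allowing under 10% growth was taken as MIC.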

[7] = test system: N. gonorrhoeae WHO Z; experiment: Liquid broth MIC in Fastidious broth; settings: Neisseria gonorrhoeae, read-out: Minimum Inhibitory Concentration, N. gonorrhoeae WHO Z
Method in brief: (§3)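 Broth microdilution against gonococcal strains expressing mosaic PBP2, starting inoculum 5×10^5 CFU/mL in Fastidious broth. Incubation runs ~24 h at 36 °C under 5% CO2, with MIC scored visually at <10% of full growth.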

[8] = test system: N. gonorrhoeae H041; experiment: Liquid broth MIC in Fastidious broth; settings: Neisseria gonorrhoeae, H041, read-out: Minimum Inhibitory Concentration, N. gonorrhoeae H041
Method in brief: as §3

[9] = test system: N. gonorrhoeae WHO Q; experiment: Liquid broth MIC in Fastidious broth; settings: Neisseria gonorrhoeae, read-out: Minimum Inhibitory Concentration, N. gonorrhoeae WHO Q
Method in brief: as §3

[10] = test system: N. gonorrhoeae FA1090; experiment: Liquid broth MIC in Fastidious broth; settings: Neisseria gonorrhoeae; N. gonorrhoeae strain FA1090; Fastidious broth; read-out: Minimum Inhibitory Concentration, N. gonorrhoeae FA1090
Method in brief: as §2

[11] = test system: N. gonorrhoeae ATCC 49226; experiment: Liquid broth MIC in Fastidious broth; settings: Neisseria gonorrhoeae, ATCC49226; N. gonorrhoeae strain ATCC 49226; Fastidious broth; read-out: Minimum Inhibitory Concentration, N. gonorrhoeae ATCC 49226
Method in brief: as §2

[12] = test system: N. gonorrhoeae WHO L; experiment: Liquid broth MIC in Fastidious broth; settings: Neisseria gonorrhoeae; N. gonorrhoeae strain WHO L; Fastidious broth; read-out: Minimum Inhibitory Concentration, N. gonorrhoeae WHO L
Method in brief: as §2

[13] = test system: N. gonorrhoeae WHO K; experiment: Liquid broth MIC in Fastidious broth; settings: Neisseria gonorrhoeae, read-out: Minimum Inhibitory Concentration, N. gonorrhoeae WHO K
Method in brief: as §3

Row | Compound | MIC [1] [µg/mL] | MIC [2] [µg/mL] | MIC [3] [µg/mL] | MIC [4] [µg/mL] | MIC [5] [µg/mL] | MIC [6] [µg/mL] | MIC [7] [µg/mL] | MIC [8] [µg/mL] | MIC [9] [µg/mL] | MIC [10] [µg/mL] | MIC [11] [µg/mL] | MIC [12] [µg/mL] | MIC [13] [µg/mL]
1 | CCN1CCN(C(=O)NC(C(=O)N[C@H]2Cc3cccc(C(=O)O)c3OB2O)c2c(F)c(F)c(O)c(F)c2F)C(=O)C1=O (stereo partly drawn) [Example 175, (3R)-3-(2-(4-ethyl-2,3-dioxopiperazine-1-carboxamido)-2-(2,3,5,6-tetrafluoro-4-hydroxyphenyl)acetamido)-2-hydroxy-3,4-dihydro-2H-benzo[e][1,2]oxaborinine-8-carboxylic acid] | > 128 | 32 to 64 (≈ 53.7 to 107 µM) | 2 to 4 (≈ 3.35 to 6.71 µM) | 2 to 4 (≈ 3.35 to 6.71 µM) | 0.5 to 1 (≈ 0.839 to 1.68 µM) | 0.25 to 0.5 (≈ 0.419 to 0.839 µM) | 1 to 2 (≈ 1.68 to 3.35 µM) | 4 to 8 (≈ 6.71 to 13.4 µM) | 1 to 2 (≈ 1.68 to 3.35 µM) | < 0.125 | 1 to 2 (≈ 1.68 to 3.35 µM) | 4 to 8 (≈ 6.71 to 13.4 µM) | 1 to 2 (≈ 1.68 to 3.35 µM)
2 | CCN1CCN(C(=O)N[C@@H](C(=O)N[C@H]2Cc3cccc(C(=O)O)c3OB2O)c2ccc(C(=O)O)cc2)C(=O)C1=O (single isomer, unassigned) [Example 124] | > 128 | 32 to 64 (≈ 57.9 to 116 µM) | 2 to 4 (≈ 3.62 to 7.24 µM) | 2 to 4 (≈ 3.62 to 7.24 µM) | < 0.25 | 0.25 to 0.5 (≈ 0.453 to 0.905 µM) | 1 to 2 (≈ 1.81 to 3.62 µM) | 4 to 8 (≈ 7.24 to 14.5 µM) | 1 to 2 (≈ 1.81 to 3.62 µM) | < 0.125 | 1 to 2 (≈ 1.81 to 3.62 µM) | 4 to 8 (≈ 7.24 to 14.5 µM) | 4 to 8 (≈ 7.24 to 14.5 µM)
3 | CCN1CCN(C(=O)N[C@@H](C(=O)N[C@H]2Cc3cccc(C(=O)O)c3OB2O)c2ccc(C(=O)O)c(F)c2)C(=O)C1=O (single isomer, unassigned) [Example 146] | > 128 | 32 to 64 (≈ 56.1 to 112 µM) | 2 to 4 (≈ 3.51 to 7.01 µM) | 2 to 4 (≈ 3.51 to 7.01 µM) | < 0.25 | 0.25 to 0.5 (≈ 0.438 to 0.877 µM) | 1 to 2 (≈ 1.75 to 3.51 µM) | 4 to 8 (≈ 7.01 to 14 µM) | 1 to 2 (≈ 1.75 to 3.51 µM) | < 0.125 | 1 to 2 (≈ 1.75 to 3.51 µM) | 4 to 8 (≈ 7.01 to 14 µM) | 1 to 2 (≈ 1.75 to 3.51 µM)
4 | CCN1CCN(C(=O)NC(C(=O)N[C@H]2Cc3cccc(C(=O)O)c3OB2O)c2cc(Cl)c(C(=O)O)cc2F)C(=O)C1=O (stereo partly drawn) [Example 138, (3R)-3-(2-(4-carboxy-5-chloro-2-fluorophenyl)-2-(4-ethyl-2,3-dioxopiperazine-1-carboxamido)acetamido)-2-hydroxy-3,4-dihydro-2H-benzo[e][1,2]oxaborinine-8-carboxylic acid] | > 128 | 32 to 64 (≈ 52.9 to 106 µM) | 2 to 4 (≈ 3.31 to 6.61 µM) | 8 to 16 (≈ 13.2 to 26.5 µM) | 0.5 to 1 (≈ 0.827 to 1.65 µM) | 1 to 2 (≈ 1.65 to 3.31 µM) | 4 to 8 (≈ 6.61 to 13.2 µM) | 16 to 32 (≈ 26.5 to 52.9 µM) | 4 to 8 (≈ 6.61 to 13.2 µM) | < 0.125 | 4 to 8 (≈ 6.61 to 13.2 µM) | 16 to 32 (≈ 26.5 to 52.9 µM) | 16 to 32 (≈ 26.5 to 52.9 µM)
5 | NS(=O)(=O)c1cccc(C(NC(=O)N2CCN(CCF)C(=O)C2=O)C(=O)N[C@H]2Cc3cccc(C(=O)O)c3OB2O)c1 (stereo partly drawn) [Example 100, (3R)-3-(2-(4-(2-fluoroethyl)-2,3-dioxopiperazine-1-carboxamido)-2-(3-sulfamoylphenyl)acetamido)-2-hydroxy-3,4-dihydro-2H-benzo[e][1,2]oxaborinine-8-carboxylic acid] | 32 to 64 (≈ 52.9 to 106 µM) | 32 to 64 (≈ 52.9 to 106 µM) | 2 to 4 (≈ 3.3 to 6.61 µM) | 2 to 4 (≈ 3.3 to 6.61 µM) | 2 to 4 (≈ 3.3 to 6.61 µM) | 1 to 2 (≈ 1.65 to 3.3 µM) | 16 to 32 (≈ 26.4 to 52.9 µM) | 16 to 32 (≈ 26.4 to 52.9 µM) | 16 to 32 (≈ 26.4 to 52.9 µM) | 0.25 to 0.5 (≈ 0.413 to 0.826 µM) | 16 to 32 (≈ 26.4 to 52.9 µM) | > 64 | 16 to 32 (≈ 26.4 to 52.9 µM)
6 | CCN1CCN(C(=O)NC(C(=O)N[C@H]2Cc3cccc(C(=O)O)c3OB2O)c2cc(Cl)c(O)c(Cl)c2)C(=O)C1=O (stereo partly drawn) [Example 171, (3R)-3-(2-(3,5-dichloro-4-hydroxyphenyl)-2-(4-ethyl-2,3-dioxopiperazine-1-carboxamido)acetamido)-2-hydroxy-3,4-dihydro-2H-benzo[e][1,2]oxaborinine-8-carboxylic acid] | > 128 | 32 to 64 (≈ 53.9 to 108 µM) | 2 to 4 (≈ 3.37 to 6.74 µM) | 2 to 4 (≈ 3.37 to 6.74 µM) | < 0.25 | 4 to 8 (≈ 6.74 to 13.5 µM) | 4 to 8 (≈ 6.74 to 13.5 µM) | 16 to 32 (≈ 27 to 53.9 µM) | 16 to 32 (≈ 27 to 53.9 µM) | 0.25 to 0.5 (≈ 0.421 to 0.843 µM) | 4 to 8 (≈ 6.74 to 13.5 µM) | > 64 | 16 to 32 (≈ 27 to 53.9 µM)
